Data on one molecule can be found in publication PMC4465922 (Nature chemical biology, 2015).

In the assay the target is T1, α2C-adrenergic receptor (α2C-AR) (Homo sapiens, UniProt P18825).
T1 sequence (P18825 1-462): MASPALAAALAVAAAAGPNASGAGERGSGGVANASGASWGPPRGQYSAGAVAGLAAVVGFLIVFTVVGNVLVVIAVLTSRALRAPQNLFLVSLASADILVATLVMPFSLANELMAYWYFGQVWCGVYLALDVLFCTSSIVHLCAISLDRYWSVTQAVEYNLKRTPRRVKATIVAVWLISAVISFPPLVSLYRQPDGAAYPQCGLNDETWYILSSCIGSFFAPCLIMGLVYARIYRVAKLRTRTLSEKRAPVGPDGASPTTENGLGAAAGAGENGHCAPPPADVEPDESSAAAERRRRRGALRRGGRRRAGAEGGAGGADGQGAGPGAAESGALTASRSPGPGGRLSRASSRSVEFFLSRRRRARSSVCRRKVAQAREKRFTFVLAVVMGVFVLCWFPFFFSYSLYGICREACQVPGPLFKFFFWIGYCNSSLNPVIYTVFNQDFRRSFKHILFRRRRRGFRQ
Kind of assay: [3H]NE competition radioligand binding on HEK293T membranes. The class given is cell-based.

Broadly, the EC50 is the concentration that produces a half-maximal response. A higher EC50 goes with a less potent agent. For the molecule `NC[C@H](O)c1ccc(O)c(O)c1` [NE, L-(–)-norepinephrine], the EC50 stood at 1.2 ± 0.4 nM.
